Legend:
Mycobacterium smegmatis = assay: Broth assay, viable cell count: killing action of antibiotic alone and in combination with lysergol; assay type: cell-based, Mycobacterium smegmatis (ATCC 14468)
Method: (§1) The invention is further explained in the form of following embodiments. • 1. Assay for bio-enhancement of anti-infective agents • (a) The minimum inhibitory concentration (MIC) of antibiotic is determined against Escherichia coli (ATCC 10536), Bacillus subtilis (ATCC 6051) and Mycobacterium smegmatis (ATCC 14468) in broth and disc diffusion assay. • (b) The antibiotics at concentrations 1/4, 1/3, 1/2 and equal to MIC are added alone and in combination with the test compound at varying concentrations on disc and in broth to evaluate the comparative inhibition. • (c) These combinations showing significant advantage or higher activity than antibiotic alone in terms of enhanced inhibition of bacterial growth (large inhibition zone in disc diffusion and effectivity of lower concentration in broth assay) are picked up for future testing. • (d) In broth assay the activity is quantified by counting number of viable cells in a given treatment and converted in fold enhancement by combination compared to antibiotic / drug alone in the killing percentage of cells. • (e) The pretreatment assay followed to determine whether the compound is required along with antibiotic to enhance its activity or even its withdrawal after treatment or prior to antibiotic treatment would benefit. For this, the cells are treated with compound for 4 to 8 hours and then washed free of it by centrifugation and washing in sterile water. This is followed by treatment with antibiotic as in steps b to d.
(§2) Bioactivity is experimented with the killing activities of different antibiotics against the bacteria singly and in combination with the test compound Lysergol following the method described above. These experiments are being described in the following examples. […] In all the experiments the Lysergol concentration is kept at 10 µg/ml, unless it is specifically mentioned.
Lysergol mediated enhancement in the killing action of antibiotics against bacterium Mycobacterium smegmatis Table 3: […]

Bacillus subtilis = assay: as above; assay type: cell-based, Bacillus subtilis (ATCC 6051)
Method: as §1, §2
Lysergol mediated enhancement in the killing action of antibiotics against Gram positive bacterium Bacillus subtilis.

[1] = Transport of antibiotics across freshly isolated gut membrane in U-shaped tubes (absorbency in right arm); assay type: in vitro ADME
Method: We performed the experiments in U-shaped tubes with joint in between, where the freshly isolated gut membrane is fixed. In control tube only antibiotic solution (4ml @ 1mg/ml solution) is poured in the left arm where as in the right arm only water is poured. In the other tube in addition to the antibiotic solution lysergol (4µg @ 1µg/ml) is added.

Escherichia coli = assay: microbe, parasite or virus in culture
Method: The invention is further explained in the form of following embodiments. • 1. […] For this, the cells are treated with compound for 4 to 8 hours and then washed free of it by centrifugation and washing in sterile water. […] These experiments are being described in the following examples. […] In all the experiments the Lysergol concentration is kept at 10 µg/ml, unless it is specifically mentioned.

bacteria = assay: Growth of bacteria in presence of lysergol alone (killing activity); assay type: cell-based; settings: 10 µg/ml, no antibiotic
Method: as §1, with “For this, the cells are treated with compound for 4 to 8 hours and then washed free of it by centrifugation and washing in sterile water. This is followed by treatment with antibiotic as in steps b to d.” left out

[2] = Escherichia coli, read-out: Survival fraction of viable cells upon treatment with antibiotic alone

Structure (SMILES) | viability at 0.2 µg/mL (Mycobacterium smegmatis; Mycolicibacterium smegmatis, read-out: Survival fraction of viable cells upon treatment with antibiotic alone) [%] | Survival fraction of viable cells upon treatment with antibiotic + lysergol combination (Mycobacterium smegmatis; antibiotic 0.2 µg/ml + lysergol 10 µg/ml) | Fold enhancement in antibiotic activity (Mycobacterium smegmatis; antibiotic 0.2 µg/ml + lysergol 10 µg/ml versus antibiotic alone) | viability at 0.4 µg/mL (Bacillus subtilis; Bacillus subtilis, read-out: Survival fraction of viable cells upon treatment with antibiotic alone) [%] | Survival fraction of viable cells upon treatment with antibiotic + lysergol combination (Bacillus subtilis; antibiotic 0.4 µg/ml + lysergol 10 µg/ml) | Fold enhancement in antibiotic activity (Bacillus subtilis; antibiotic 0.4 µg/ml + lysergol 10 µg/ml versus antibiotic alone) | Increase in absorbency [1] | viability at 10 µg/mL (Escherichia coli; [2]) [%] | viability at 20 µg/mL (Escherichia coli; [2]) [%] | Fold enhancement in antibiotic activity (Escherichia coli; antibiotic 10 µg/ml + lysergol 10 µg/ml versus antibiotic alone) | Fold enhancement in antibiotic activity (Escherichia coli; antibiotic 20 µg/ml + lysergol 10 µg/ml versus antibiotic alone) | killing of bacteria grown in presence of the compound as such (bacteria)
CO[C@H]1/C=C/O[C@@]2(C)Oc3c(C)c(O)c4c(O)c(c(/C=N/N5CCN(C)CC5)c(O)c4c3C2=O)NC(=O)/C(C)=C\C=C\[C@H](C)[C@H](O)[C@@H](C)[C@@H](O)[C@@H](C)[C@H](OC(C)=O)[C@@H]1C [Rifampicin] | 45 to 54 | 0.09-0.10 | 4.5-6.0 fold | 8.5 to 9.6 | 0.021-0.028 | 3.0-4.6 fold | 0.131 | 35 to 45 | 25 to 30 | 6-12 fold | 3-5 fold | –
CN1C[C@H](CO)C=C2c3cccc4[nH]cc(c34)C[C@H]21 [Lysergol, 9,10-Didehydro-6-methylergoline-8-[…]-methanol] | – | – | – | – | – | – | – | – | – | – | – | no significant killing

Source: patent EP1370263B1, “ANTIBIOTIC PHARMACEUTICAL COMPOSITION WITH LYSERGOL AS BIO-ENHANCER AND METHOD OF TREATMENT” (Council of Scientific and Industrial Research, priority 2002, dated 2003)
